Data: US7547698B2, “Bicyclic heterocyclic derivatives and their use as inhibitors of stearoyl-coadesaturase (SCD)” (Xenon Pharmaceuticals Inc., priority 2004, dated 2009)

| SMILES | melting point [°C] |
| --- | --- |
| CCCCNC(=O)c1cn2nc(N3CCN(C(=O)c4ccccc4C(F)(F)F)CC3)ccc2n1 [Example 1.6, 6-[4-(2-TRIFLUOROMETHYLBENZOYL)PIPERAZIN-1-YL]IMIDAZO[1,2-B]PYRIDAZINE-2-CARBOXYLIC ACID BUTYLAMIDE] | 187 to 189 |
| CCCCCNC(=O)c1cn2nc(N3CCN(C(=O)c4ccccc4C(F)(F)F)CC3)ccc2n1 | 179 to 180 |

The next lines start with the values.

| melting point [°C] | SMILES |
| --- | --- |
| 265 to 268 | O=C(Nc1ccc(Cl)cn1)c1cn2nc(N3CCN(C(=O)c4ccccc4C(F)(F)F)CC3)ccc2n1 [Example 1.7, 6-[4-(2-TRIFLUOROMETHYLBENZOYL)PIPERAZIN-1-YL]IMIDAZO[1,2-B]PYRIDAZINE-2-CARBOXYLIC ACID (5-CHLOROPYRIDIN-2-YL)AMIDE] |
| 115 to 117 | O=C(Nc1ccc(F)cc1)c1cn2nc(N3CCN(C(=O)c4ccccc4C(F)(F)F)CC3)ccc2n1 [Example 1.9, 6-[4-(2-TRIFLUOROMETHYLBENZOYL)PIPERAZIN-1-YL]-IMIDAZO[1,2-B]PYRIDAZINE-2-CARBOXYLIC ACID (4-FLUOROPHENYL)AMIDE] |
| 205 to 207 | O=C(NCc1ccc(F)cc1)c1cn2nc(N3CCN(C(=O)c4ccccc4C(F)(F)F)CC3)ccc2n1 [Example 1.8, 6-[4-(2-TRIFLUOROMETHYLBENZOYL)PIPERAZIN-1-YL]IMIDAZO[1,2-B]PYRIDAZINE-2-CARBOXYLIC ACID 4-FLUOROBENZYLAMIDE] |
